Data taken from BindingDB's records for patent US20230322789 (Broadenbio, 2023).
pIC50: −log10 of the molar value.

Target: Mitogen-activated protein kinase kinase kinase kinase 1 (Homo sapiens, UniProt Q92918)
Assay: HPK1 Kinase Activity Inhibition Assay
Description: 1. HPK1 Kinase Activity Inhibition Test. The kinase activity of HPK1 is manifested as activity of autophosphorylation and phosphorylation of downstream substrates. In the process of autophosphorylation, additional substrates are not required, and ATP is consumed to generate ADP. […] Transfer 2 μL of 2×[…] kinase solution to 384 reaction plate, add 1 μL of the test compound to the 384 reaction plate (Greiner, 784075), centrifuge for 1 minute (1000 rpm/min), incubate at 25° C. for 10 minutes. […] of the 4×ATP mixture to a 384 reaction plate, centrifuge for 1 minute (1000 rpm/mm), and incubate at 25° C. for 60 minutes. In the reaction system, the final concentration of DMSO was […]. Transfer 4 μL of ADP-Glo to a 384 reaction plate, centrifuge for 1 minute (1000 rpm/min), and incubate at 25° C. for 40 minutes. Transfer 8 μL detection solution to a 384 reaction plate, centrifuge for 1 minute (1000 rpm/min), and incubate at 25° C. for 40 minutes. The […] signal was read using a Biotek multi-function plate reader, and the […] (half inhibitory concentration) of the compound was obtained using a four-coefficient nonlinear fitting formula.

Chain of Mitogen-activated protein kinase kinase kinase kinase 1 (Q92918 whole entry): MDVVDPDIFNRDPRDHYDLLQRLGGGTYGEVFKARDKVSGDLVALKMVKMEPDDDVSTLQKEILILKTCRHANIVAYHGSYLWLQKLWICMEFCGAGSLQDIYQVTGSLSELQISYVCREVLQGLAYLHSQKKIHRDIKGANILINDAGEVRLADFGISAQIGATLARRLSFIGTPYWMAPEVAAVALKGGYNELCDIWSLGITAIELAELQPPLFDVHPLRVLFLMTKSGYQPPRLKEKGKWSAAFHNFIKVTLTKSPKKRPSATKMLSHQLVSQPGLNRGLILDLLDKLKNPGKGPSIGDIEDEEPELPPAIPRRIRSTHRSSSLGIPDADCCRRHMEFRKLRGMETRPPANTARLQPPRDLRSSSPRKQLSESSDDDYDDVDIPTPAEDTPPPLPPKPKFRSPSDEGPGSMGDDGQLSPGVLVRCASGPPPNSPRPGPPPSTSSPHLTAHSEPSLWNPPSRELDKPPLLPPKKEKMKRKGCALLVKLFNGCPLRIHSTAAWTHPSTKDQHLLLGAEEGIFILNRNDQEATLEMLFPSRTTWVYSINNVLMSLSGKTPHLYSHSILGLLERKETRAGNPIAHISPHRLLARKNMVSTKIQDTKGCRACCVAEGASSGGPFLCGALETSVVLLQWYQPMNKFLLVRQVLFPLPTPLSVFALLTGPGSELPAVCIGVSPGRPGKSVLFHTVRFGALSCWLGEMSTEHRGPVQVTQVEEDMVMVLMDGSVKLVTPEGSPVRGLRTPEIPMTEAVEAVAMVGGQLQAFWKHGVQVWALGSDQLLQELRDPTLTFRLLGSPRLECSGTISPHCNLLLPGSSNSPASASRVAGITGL

| SMILES | pIC50 |
| --- | --- |
| CCc1cccc(F)c1-n1nc2c(-c3ccc(N4CCN(CC(C)(C)O)CC4)cc3)n[nH]c2cc1=O [US20230322789, Compound 116] | > 7.30 |
| Cc1cccc(F)c1-n1nc2c(-c3ccc(N4CCN5C(=O)OCC5C4)nc3)n[nH]c2cc1=O (configuration not stated) [US20230322789, Compound 129] | > 7.30 |
